Laboratory results from publication PMC10987949, “Inhibition of HIV-1 release by ADAM metalloproteinase inhibitors” (Frontiers in Microbiology, 2024).

How the values were obtained:
[1] = system: HIV-1; test: Ex vivo HIV-1 release from CD4 T cells of HIV-1 infected individuals; type: cell-based; details: 50 μM; CD4 T cells from six HIV-1 infected individuals; day 2 and 4
Protocol: PBMCs were collected from the study subjects in accordance with a clinical protocol approved by the Institutional Review Board of the National Institute of Allergy and Infectious Diseases, National Institutes of Health under protocol #02-I-0202. CD4^+ T cells were isolated from the PBMCs using a human CD4 T cell separation system (StemCell Technologies, Catalog 19052) and were cultured with medium alone or with plate-bound anti-CD3 and soluble anti-CD28 antibody in the absence or presence of 50 μM of indicated compounds for 48 h. The copy number of cell-free viron-associated HIV RNA in the culture supernatants was quantified using the Cobas Ampliprep/Cobas Taqman HIV-1 Test, Version 2.0 (Roche Diagnostics) with droplet digital PCR (ddPCR, BIO-RAD) on day 2 and 4 of stimulation.

[2] = system: CD62L shedding; test: Soluble CD62L ELISA, unstimulated PBMC; type: cell-based, human; details: Homo sapiens, PBMC; 10 μM compound; non-stimulated cells; ELISA; read-out: Shedding inhibition Non-stim.
Protocol: PBMC from de-identified healthy donors were obtained with informed consent from the Department of Transfusion Medicine, National Institutes of Health under Biological reagent Registry RD-14-IX-12 approved by NIH biological safety board. CD8-depleted PBMCs, either stimulated or non-stimulated with 10 μg/mL phytohaemagglutinin (PHA) or anti-CD3 antibody (with or without conjugated beads), were plated at 2×10^6 cells/ml in 48 well plates in RPMI 1640 + 10%FBS (R10) to a final volume of 1 mL in each well. IL-2 was added at a final concentration of 20 U/mL. CD3 antibody okt3 was used at ~0.2 μg/mL final concentration. […] Supernatants were collected and assessed using either the CD62L or TNF-α Duo Set ELISA kit according to manufacturer's instructions (R&D Systems, Inc.). The viability of cells treated with compounds was assessed by acridine orange / propidiom iodide (AO/PI Logosbio catalog F23001) staining using Luna-FL cell counter following the manufacture's instruction.^2 […] Supplemental Figure 1. CD62L shedding from unstimulated PBMC. A) Soluble CD62L in the supernatant of unstimulated PBMC was measured By ELISA (R&D systems, Inc) after 24 hour treatment in the presence of 10 μM of […]), aminopeptidase (AP) protease inhibitors, respectively, or their untreated controls. Statistics were calculated using unpaired parametric student t-test between individual treatment and DMSO control. […] B) Viability of PBMC treated with 10-500 μM of MMP inhibitors for 24hours. […] Untreated DMSO AEBSF 3,4-Dichloroisocouman Granzyme B Inhibitor II Granzyme B Inhibitor IV Aprotinin […] 3 4 CD62L shedding from unstimulated PBMC Soluble CD62L (ng/ml) Inhibitor Class […] GI254023X 10 GI254023X 100 […] GI254023X 1000 GW280264X 10 GW280264X 100 […] GW280264X 1000 Marimastat 10 Marimastat 100 Marimastat 250 […]

[3] = system: CD62L shedding; test: Soluble CD62L ELISA, anti-CD3/PHA stimulated PBMC or CD4 T cells; type: cell-based, human; details: ELISA
Protocol: PBMC from de-identified healthy donors were obtained with informed consent from the Department of Transfusion Medicine, National Institutes of Health under Biological reagent Registry RD-14-IX-12 approved by NIH biological safety board. […] IL-2 was added at a final concentration of 20 U/mL. CD3 antibody okt3 was used at ~0.2 μg/mL final concentration. […] Supernatants were collected and assessed using either the CD62L or TNF-α Duo Set ELISA kit according to manufacturer’s instructions (R&D Systems, Inc.). The viability of cells treated with compounds was assessed by acridine orange / propidiom iodide (AO/PI Logosbio catalog F23001) staining using Luna-FL cell counter following the manufacture’s instruction.^2

[4] = biological target: T1, recombinant HIV-1 protease (Human immunodeficiency virus type 1 group M subtype B, UniProt P04585); test: HIV-1 protease fluorogenic substrate cleavage; type: biochemical; details: 100nM saquinavir or nelfinavir; MMP inhibitors up to 10uM
T1 construct: recombinant HIV-1 protease; purchased Sigma-Aldrich SRP2151
Protocol: HIV-1 protease enzymatic activity was assayed in black 96-well plates at room temperature using a Synergy_h1 fluorescent plate reader with 340 nm excitation and 490 nm emission wavelengths (BioTek). Each enzymatic reaction consisted of a mixture of 100 ng of recombinant HIV-1 protease (Sigma-Aldrich catalog SRP2151), 5 μM concentration of a fluorogenic substrate Arg-Glu(EDANS)-[…]DABCYL)-Arg (Sigma-aldrich catalog H6660), and various concentrations of inhibitor compounds in 100 μL of assay buffer (0.15 M sodium chloride, 1.0 mM EDTA, 1.0 mM DTT, 0.1 M sodium acetate, pH 5.0). The fluorescence of the cleavage reaction was continuously read at every 30 s for a total of 40 min.

[5] = biological target: T2, recombinant ADAM10 (Homo sapiens, UniProt O14672); test: Kinetic cleavage of fluorogenic TNF-α peptide ES003 by recombinant ADAM10; type: biochemical; details: 2 μM compound
T2 construct: purchased R&D systems, Inc
T2 sequence (O14672 214-748): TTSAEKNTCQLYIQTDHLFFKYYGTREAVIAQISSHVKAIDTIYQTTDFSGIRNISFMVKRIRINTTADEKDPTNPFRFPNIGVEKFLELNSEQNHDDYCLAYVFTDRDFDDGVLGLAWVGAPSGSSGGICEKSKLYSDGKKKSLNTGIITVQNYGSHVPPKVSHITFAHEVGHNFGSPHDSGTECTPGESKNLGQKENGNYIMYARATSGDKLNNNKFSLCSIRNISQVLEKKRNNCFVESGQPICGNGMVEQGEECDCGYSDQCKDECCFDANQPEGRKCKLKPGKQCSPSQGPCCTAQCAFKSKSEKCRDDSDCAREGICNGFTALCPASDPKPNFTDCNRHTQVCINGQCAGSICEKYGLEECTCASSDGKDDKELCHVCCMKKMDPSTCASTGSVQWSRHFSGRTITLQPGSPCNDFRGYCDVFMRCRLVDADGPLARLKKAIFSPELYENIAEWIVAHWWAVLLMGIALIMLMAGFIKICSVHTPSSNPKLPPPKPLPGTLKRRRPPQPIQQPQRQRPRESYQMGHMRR
Excerpt: (§1) A fluorescence based enzymatic assay was used to measure the cleavage of fluorogenic TNF-α and L-selectin (CD62L) peptides by either recombinant ADAMs or PBMC from healthy donors. The fluorogenic substrate, synthesized by Biomatik^3, was a Dabcyl (4-(4-dimethylaminophenylazo)benzoyl)- and Edans (5-[(2-aminoethyl)amino]naphthalene-1-sulfonic acid)- conjugated 12 amino acid peptide: Dabcyl-[…]-Edans that corresponds to the extracellular membrane proximal region of CD62L. […] The cleavage was measured in a kinetic assay every 3 min for 4 h in black 96-well plates using a Synergy_h1 fluorescent plate reader (BioTek) with 340 nm excitation and 490 nm emission wavelengths. […] PBMC were stimulated with anti-CD3 antibody for 2–4 days as described above.
(§2) 96-well plate with data recorded every 3 minutes for 4 hours using a Synergy_h1 fluorescent plate reader. Each enzymatic reaction contained 50 -200 ng
(§3) Figure 2B and 2C bar diagrams are generated using the
(§4) data points at 4 hour time point of the enzymatic cleavages.

[6] = biological target: T2, recombinant ADAM10; test: Cleavage of fluorogenic CD62L peptide by recombinant ADAM10; type: biochemical; details: 2 μM compound
Excerpt: A fluorescence based enzymatic assay was used to measure the cleavage of fluorogenic TNF-α and L-selectin (CD62L) peptides by either recombinant ADAMs or PBMC from healthy donors. The fluorogenic substrate, synthesized by Biomatik^3, was a Dabcyl (4-(4-dimethylaminophenylazo)benzoyl)- and Edans (5-[(2-aminoethyl)amino]naphthalene-1-sulfonic acid)- conjugated 12 amino acid peptide: Dabcyl-[…]-Edans that corresponds to the extracellular membrane proximal region of CD62L. The fluorescence of the Edans group is quenched by the Dabcyl group in the intact substrate and the cleavage of the CD62L substrate peptide results in a fluorescence emission at 490 nm. The cleavage of fluorogenic TNF-α peptide (ES003, R &D systems, Inc) was detected at emission of 405 nm. The cleavage was measured in a kinetic assay every 3 min for 4 h in black 96-well plates using a Synergy_h1 fluorescent plate reader (BioTek) with 340 nm excitation and 490 nm emission wavelengths. For cleavage using recombinant ADAMs, each enzymatic reaction contained 50–200 ng of recombinant ADAM17 or 10 (R&D systems, Inc) mixed with 5–10 μM fluorogenic TNFα peptide ES003 (R&D systems, Inc) or CD62L peptide with or without indicated inhibitors in 100 μL assay buffer of 25 mM Tris at pH 9.0, 2.5 μM ZnCl2, and 0.005% Brij-35 (w/v). For cell-based cleavage of the fluorescent CD62L-peptide substrate, 300,000 PBMC at 2×10^6/ml density were mixed with 10 μM fluorescent CD62L-peptide and various inhibitors in a black 96-well plate in 150 μL culture media (RPMI 1640, 10% FBS, 1% penicillin streptomycin). PBMC were stimulated with anti-CD3 antibody for 2–4 days as described above.
Supplemental Figure 3. Inhibition of ADAM10 enzymatic activity by 14mb. A) chemical structure of 3-Cl-phenylpyrrolidine tartrate diamide analogs 14m and 15. B)Inhibition of recombinant ADAM10 cleavage of a fluorogenic CD62L peptide substrate in the presence of titrating concentrations of 14mb. The concentration-dependent enzymatic activities are fitted with non-linear regression of normalized inhibition response model. C). Inhibition of ADAM10 enzymatic cleavage of fluorogenic CD62L peptide by various […]

[7] = biological target: T3, recombinant ADAM17 (Homo sapiens, UniProt P78536); test: Kinetic cleavage of fluorogenic TNF-α peptide ES003 by recombinant ADAM17; type: biochemical; details: 2 μM compound
T3 construct: purchased R&D systems, Inc
T3 sequence (P78536 215-824): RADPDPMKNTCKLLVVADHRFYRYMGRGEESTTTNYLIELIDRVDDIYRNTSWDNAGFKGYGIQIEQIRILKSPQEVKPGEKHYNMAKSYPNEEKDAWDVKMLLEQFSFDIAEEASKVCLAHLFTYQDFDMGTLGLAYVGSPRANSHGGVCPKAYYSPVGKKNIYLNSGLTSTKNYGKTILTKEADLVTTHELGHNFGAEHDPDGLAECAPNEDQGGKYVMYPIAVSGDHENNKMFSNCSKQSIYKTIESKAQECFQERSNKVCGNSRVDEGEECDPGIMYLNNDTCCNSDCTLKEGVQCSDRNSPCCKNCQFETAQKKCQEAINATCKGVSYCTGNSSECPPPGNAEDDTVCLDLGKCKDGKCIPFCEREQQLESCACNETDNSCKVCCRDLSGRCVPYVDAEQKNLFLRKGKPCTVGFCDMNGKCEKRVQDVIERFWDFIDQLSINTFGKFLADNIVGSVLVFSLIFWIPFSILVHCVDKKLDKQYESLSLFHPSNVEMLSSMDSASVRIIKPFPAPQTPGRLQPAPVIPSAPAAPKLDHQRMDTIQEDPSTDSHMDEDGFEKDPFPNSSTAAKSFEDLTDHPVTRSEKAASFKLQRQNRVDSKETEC
Excerpt: as §1, §2, §3, §4

[8] = system: HIV-1BAL; test: HIV-1BAL infection of CD8-depleted PBMC, FACS (intracellular p24, CD4, CD62L); type: cell-based
Excerpt: The use of healthy human peripheral blood mononuclear cells (PBMC) is approved by the Department of Transfusion Medicine at the Clinical Center of National Institutes of Health. The use of PBMC from HIV-1 infected individuals for the study was approved under protocol #02-I-0202 by the Institutional Review Board (IRB) of National Institutes of Health with written informed consent from all donors. Peripheral blood mononuclear cells (PBMCs) from anonymous healthy donors were isolated by Ficoll-Paque gradient, and cultured in RPMI 1640 supplemented with 10% FBS, 1%Penicillin/streptomycin, 1% HEPES buffer and 20 U/mL IL-2 (culture media); and stimulated with 0.2 μg/mL anti-CD3 antibody (okt3) for 2 days. CD8^+ T cells were depleted prior to infection using the Stemcell CD8 positive selection kit according to manufacturer’s instructions. CD8-depleted PBMCs were plated at 2×10^6 cells/ml in 48-well plates in 1 mL culture media with various inhibitors for 60 min prior to the addition of ~80 TCID50 HIV-1BAL or HIV-1LAI. Inhibitors were replenished during media change every 3 days. The infections were proceeded with or without inhibitors for 6 days or otherwise specified number of days and then analyzed by FACS staining using fluorescent labeled CD4-BV510, CD62L-APC and CD3-PEC7 antibodies (BD Biosciences). Cells were then washed and permeabilized with CytoFix/CytoPerm (BD Biosciences) solution before intracellular staining for HIV p24 antigen using FITC conjugated anti-p24 antibody clone KC57 (Beckman Coulter, catalog 6604665). All assays were performed with cell viabilities >80%. Replication competent HIV-1 viruses were obtained from the NIH AIDS Reagent Program^4, and expanded by infecting activated CD8-depleted PBMCs, and TCID50 was determined by p24 ELISA.

| SMILES | effect on viral release (virion-associated HIV RNA) [1] | inhibition at 10 µM [2] [%] | inhibition at 10 µM ([3]; Homo sapiens, 10 μM compound, stimulated cells) [%] | effect on CD62L shedding / soluble CD62L ([3]; stimulated PBMC or CD4 T cells) | effect on HIV protease cleavage of fluorogenic substrate [4] | inhibition of ADAM10 cleavage of ES003 [5] | inhibition of ADAM10 cleavage of CD62L substrate peptide [6] | inhibition of ADAM17 cleavage of ES003 [7] | accumulation of infected CD4−/CD62L− T cells (loss of CD62L) ([8]; HIV-1BAL infected cells) | effect on HIV-1BAL infection (intracellular p24) ([8]; day 7 post infection, compounds at 100 μM, GI254023X at 250 μM) | Shedding inhibition Stimulated ([3]; 10 μM compound, stimulated cells) |
| --- | --- | --- | --- | --- | --- | --- | --- | --- | --- | --- | --- |
| CNC(=O)[C@H](Cc1c[nH]c2ccccc12)NC(=O)[C@@H](CC(=O)NO)CC(C)C [GM6001] | inhibited viral release in a portion of the samples | 20 to 50 | 20 to 50 | suppressed CD62L shedding | none of the MMP inhibitors, including BB-94, prinomastat, GM6001 and DMDP, inhibited the activity of HIV protease | – | – | – | – | – | – |
| O=P([O-])([O-])C(Cl)(Cl)P(=O)(O)O.[Na+].[Na+] [DMDP, Dichloromethylenediphosphonic acid disodium salt] | – | – | – | – | none of the MMP inhibitors, including BB-94, prinomastat, GM6001 and DMDP, inhibited the activity of HIV protease | inhibited neither ADAM10 nor 17 enzymatic activities | not | inhibited neither ADAM10 nor 17 enzymatic activities | failed to prevent the loss of CD62L | failed to inhibit HIV-1BAL infections | − (0% inhibition) |
